Where two headings read alike, the source gives them in different places.
Experiments:
Assay type in all cases: cell-based
[1] = system: Staphylococcus aureus ATCC 209p; assay: Disinfectant activity in suspension test
Description: (§1) To prepare a bacterial suspension of the culture, microorganisms grown in dense nutrient medium for (18-24) hours were washed off with a sterile isotonic sodium chloride solution. The bacterial suspension of each microorganism was brought to a turbidity corresponding to a concentration of 1×10^9 cells/ml, which corresponds to 3 units of McFarland. For experiments with protein loading, a solution of bovine serum albumin (BSA) was added to the bacterial suspension to a final concentration of 0.2%.
(§2) Solutions of compound I, miramistin, and benzalkonium chloride were poured at a working concentration (0.1%, 0.2%) into a 24-well plate of 0.9 ml per well: 0.1 ml of microbial suspension was added to wells with disinfectant solutions and mixed by shaking for several seconds.
(§3) At the end of 1, 5, and 15 minutes of exposure, 0.5 ml of a universal neutralizer was added and mixed by shaking to deactivate the drugs and stop their antimicrobial activity. The neutralizer consisted of tween-80 (Sigma-Aldrich)—3.0 ml, saponin (DIAEM)—3.0 g, histidine—0.1 g, cysteine—0.1 g in 100 ml of phosphate-buffered solution.
(§4) The liquid was inoculated on a dense nutrient medium (Müller-Hinton agar) in 0.1 ml of the mixture, cultivation was carried out (24-48) hours at 37° C. Müller-Hinton broth was prepared from dry media (Mueller Hinton broth, Acumedia, Baltimore), cultivation was carried out on agarized Müller-Hinton broth, which included an additional 2% of agar. The media were autoclaved at 121° C. for 15 minutes.
(§5) After the time required for the cultivation of microorganisms, the results were counted according to the number of colonies grown on the Petri dish. In the absence of growth, the time for culturing microorganisms was increased by a factor of 2 (for example, when the cultivation time was 24 hours, it was left in the thermostat for up to 2 days). The experiment was carried out three times under the same conditions.
(§6) The criterion of efficacy of drugs in suspension is the death of 100% test microorganisms, with a duration of action not more than 30 minutes.

[2] = system: Escherichia coli CDC F-50; assay: Disinfectant activity in suspension test
Description: as §1, §2, §3, §4, §5, §6

E. faecium 27 = assay: MIC, serial dilutions in Müller-Hinton broth
Description: (§7) A comparative assessment of the spectrum of antibacterial action was carried out on archival and clinical strains of gram-positive and gram-negative microorganisms in accordance with the [Opredeleniye chuvstvitel'nosti mikroorganizmov k antibakterial'nym preparatam (Metodicheskiye ukazaniya MUK 4.2.1890-04). Utverzhdeny i vvedeny v deystviye Glavnym gosudarstvennym sanitarnym vrachom Rossiyskoy Federatsii G. G. Onishchenko 04.03.2004 g. Determination of the sensitivity of microorganisms to antibacterial drugs (Guidelines MUK 4.2.1890-04). Approved and put into effect by the Chief State Sanitary Doctor of the Russian Federation G. G. Onishchenko on 4 Mar. 2004].
(§8) The value of the minimum inhibitory concentration (MIC) was determined by the method of serial dilutions on Müller-Hinton broth using 96-well sterile plates. Two-fold dilutions of the test substances in a nutrient medium were prepared. The final concentrations were 1-128 ug/ml. The growth of cultures was assessed visually, comparing the growth of microorganisms in the presence of test compounds with the growth of culture without them. […] The first lowest concentration of the studied substance (from a series of consecutive dilutions), where bacterial growth is not visually determined, is considered to be the minimum inhibitory concentration (MIC). MIC was determined by the method of serial dilutions in broth with increment=2, so the differences of neighboring dilutions are not considered to be significant. In each experience there is a positive (broth with growing culture) and a negative (broth without growing culture) control.
(§9) To determine the MIC, 10 μl of culture medium was taken from those wells in which growth was not observed, and inoculation was performed on a dense Müller-Hinton broth. For the preparation of the inoculum, a pure, daily culture of gram-positive and gram-negative microorganisms grown on a dense nutrient medium was used. Nutrient medium is Müller-Hinton broth, which was prepared from dry media (Müller-Hinton broth, Acumedia, Baltimore), cultivation was carried out on agarized Müller-Hinton broth, including an additional 2% agar. The media were autoclaved at 121° C. for 15 minutes. In a sterile isotonic solution of sodium chloride, a suspension of microorganisms was prepared, adjusting the inoculum density to 0.5 according to the McFarland standard (1.5·10^8 CFU/ml). Then, the resulting inoculum was diluted to a concentration of 10^7 CFU/ml with Müller-Hinton broth. The inoculum was used within 15 minutes after preparation; the purity of the bacterial strains was monitored before each experiment.
(§10) 100 μl of Müller-Hinton broth was added to the wells of each plate; The tested substance was introduced into the first well at a concentration of 128 μg/ml in a volume of 100 μl and its concentration was adjusted to 0.5 μg/ml by consecutive two-fold dilution. Then, the prepared inoculum (100 μI) was added to each well, thereby diluting twice the concentration of the studied compounds. […] In addition, the purity of nutrient media and solvents was monitored. The plates were incubated in a thermostat at 37° C. for 24 hours. The growth of cultures was assessed visually, comparing the growth of microorganisms in the presence of test compounds with the growth of culture without them.
(§11) For the MIC was taken the minimum concentration of the studied compounds, providing complete suppression of the visible growth of the studied strains of microorganisms. The maximum value obtained in three independent experiments was taken as the MIC of the compound.

S. marcescens = assay: MIC, serial dilutions in Müller-Hinton broth
Description: as §7, §8, §9, §10, §11

S. marcescens 1966 PR = assay: MIC, serial dilutions in Müller-Hinton broth
Description: as §7, §8, §9, §10, §11

Kl. pneumoniae 1342 PR = assay: MIC, serial dilutions in Müller-Hinton broth
Description: as §7, §8, §9, §10, §11

E. faecium 28 = assay: MIC, serial dilutions in Müller-Hinton broth
Description: as §7, §8, §9, §10, §11

Pseudomonas spp. 5 = assay: MIC, serial dilutions in Müller-Hinton broth
Description: as §7, §8, §9, §10, §11

[3] = 0.1% solution, exposure 1 min, +BSA
[4] = 0.1% solution, exposure 1 min, −BSA
[5] = 0.1% solution, exposure 5 min, +BSA
[6] = 0.1% solution, exposure 5 min, −BSA
[7] = 0.1% solution, exposure 15 min, +BSA
[8] = 0.1% solution, exposure 15 min, −BSA
[9] = 0.2% solution, exposure 1 min, +BSA
[10] = 0.2% solution, exposure 1 min, −BSA
[11] = 0.2% solution, exposure 5 min, +BSA
[12] = 0.2% solution, exposure 5 min, −BSA
[13] = 0.2% solution, exposure 15 min, +BSA
[14] = 0.2% solution, exposure 15 min, −BSA

Compound	Inhibition rate (M ± SD) Staphylococcus aureus ATCC 209p [1, 3]	Inhibition rate (M ± SD) Staphylococcus aureus ATCC 209p [1, 4]	Inhibition rate (M ± SD) Staphylococcus aureus ATCC 209p [1, 5]	Inhibition rate (M ± SD) Staphylococcus aureus ATCC 209p [1, 6]	Inhibition rate (M ± SD) Staphylococcus aureus ATCC 209p [1, 7]	Inhibition rate (M ± SD) Staphylococcus aureus ATCC 209p [1, 8]	Inhibition rate (M ± SD) Staphylococcus aureus ATCC 209p [1, 9]	Inhibition rate (M ± SD) Staphylococcus aureus ATCC 209p [1, 10]	Inhibition rate (M ± SD) Staphylococcus aureus ATCC 209p [1, 11]	Inhibition rate (M ± SD) Staphylococcus aureus ATCC 209p [1, 12]	Inhibition rate (M ± SD) Staphylococcus aureus ATCC 209p [1, 14]	Inhibition rate (M ± SD) of Escherichia coli CDC F-50 growth [2, 3]	Inhibition rate (M ± SD) of Escherichia coli CDC F-50 growth [2, 4]	Inhibition rate (M ± SD) of Escherichia coli CDC F-50 growth [2, 5]	Inhibition rate (M ± SD) of Escherichia coli CDC F-50 growth [2, 6]	Inhibition rate (M ± SD) of Escherichia coli CDC F-50 growth [2, 7]	Inhibition rate (M ± SD) of Escherichia coli CDC F-50 growth [2, 8]	Inhibition rate (M ± SD) of Escherichia coli CDC F-50 growth [2, 9]	Inhibition rate (M ± SD) of Escherichia coli CDC F-50 growth [2, 10]	Inhibition rate (M ± SD) of Escherichia coli CDC F-50 growth [2, 11]	also measured
CCCCCCCCCCCC[N+](C)(C)Cc1cnc(C[N+](C)(C)CCCCCCCCCCCC)c2c1COC(CC)O2 (centres unmarked) [Compound I, 5,8-(Bis(methylene (N, N-dimethyl-N-dodecylammonium))-2-ethyl-4H-[1,3]dioxino [4,5-c]pyridiniumdichloride]	99.99%	99.99%	99.99%	99.99%	99.99 ± 0.005%	99.99 ± 0.005%	99.99 ± 0.005%	100%	99.99 ± 0.005%	100%	100%	99.99 ± 0.005%	99.99%	99.99 ± 0.005%	99.99 ± 0.005%	100%	100%	99.99 ± 0.005%	99.99%	99.99%	death of Staphylococcus aureus ATCC 209p ([1]; 0.1% solution): 99.99%; Inhibition rate (M ± SD) Staphylococcus aureus ATCC 209p [1, 13]: 100%; Inhibition rate (M ± SD) of Escherichia coli CDC F-50 growth [2, 12]: 99.99%; Inhibition rate (M ± SD) of Escherichia coli CDC F-50 growth [2, 13]: 100%; Inhibition rate (M ± SD) of Escherichia coli CDC F-50 growth [2, 14]: 100%; MIC (E. faecium 27; Enterococcus faecium, E. faecium 27, inoculum 10^7 CFU/ml, read-out: MIC): 0.03 mg/L; MIC (S. marcescens; Serratia marcescens, S. marcescens, inoculum 10^7 CFU/ml, read-out: MIC): 4 mg/L; MIC (S. marcescens 1966 PR; Serratia marcescens, S. marcescens 1966 PR, inoculum 10^7 CFU/ml, read-out: MIC): 32 mg/L; MIC (Kl. pneumoniae 1342 PR; Klebsiella pneumoniae, Kl. pneumoniae 1342 PR, inoculum 10^7 CFU/ml, read-out: MIC): 32 mg/L; MIC (E. faecium 28; Enterococcus faecium, E. faecium 28, inoculum 10^7 CFU/ml, read-out: MIC): 0.03 mg/L; MIC (Pseudomonas spp. 5; Pseudomonas spp. 5, inoculum 10^7 CFU/ml, read-out: MIC): 8 mg/L
CCCCCCCCCCCCCC(=O)NCCC[N+](C)(C)Cc1ccccc1.O.[Cl-] [Miramistin, benzyldimethyl [3-(myristoylamino)propyl]-ammonium chloride monohydrate]	99.99%	99.9%	99.99%	99.99%	99.99 ± 0.005%	99.99%	99.99%	99.9%	99.99 ± 0.005%	99.99%	100%	99.98 ± 0.005%	99.99%	99.99%	99.99 ± 0.005%	99.99 ± 0.005%	100%	99.99%	99.99%	99.99%	Inhibition rate (M ± SD) Staphylococcus aureus ATCC 209p ([1]; 0.2% solution, exposure 15 min, +BSA, listed as miramistin, monohydrate): < 100%; Inhibition rate (M ± SD) Staphylococcus aureus ATCC 209p ([1]; 0.2% solution, exposure 15 min, +BSA, monohydrate): 99.99 ± 0.005%; Inhibition rate (M ± SD) of Escherichia coli CDC F-50 growth [2, 12]: 99.99 ± 0.005%; Inhibition rate (M ± SD) of Escherichia coli CDC F-50 growth [2, 13]: 100%; Inhibition rate (M ± SD) of Escherichia coli CDC F-50 growth [2, 14]: 100%; MIC (E. faecium 27; Enterococcus faecium, 27): 32 mg/L; MIC (S. marcescens; Serratia marcescens): 32 mg/L; MIC (S. marcescens 1966 PR; Serratia marcescens, 1966PR): 64 mg/L; MIC (Kl. pneumoniae 1342 PR; Klebsiella pneumoniae, 1342PR): 64 mg/L; MIC (E. faecium 28; Enterococcus faecium, 28): 32 mg/L; MIC (Pseudomonas spp. 5; Pseudomonas, SPP.5): > 64 mg/L
alkyldimethyl(phenylmethyl) ammonium chloride [Benzalconium chloride]	99.99%	99.99%	99.99%	99.99%	99.99 ± 0.005%	99.99 ± 0.005%	100%	100%	100%	100%	100%	99.99 ± 0.005%	99.99%	99.99 ± 0.005%	99.99 ± 0.005%	100%	100%	99.99 ± 0.005%	99.99 ± 0.005%	100%	Inhibition rate (M ± SD) Staphylococcus aureus ATCC 209p [1, 13]: 100%; Inhibition rate (M ± SD) of Escherichia coli CDC F-50 growth [2, 12]: 99.99 ± 0.005%; Inhibition rate (M ± SD) of Escherichia coli CDC F-50 growth [2, 13]: 100%; Inhibition rate (M ± SD) of Escherichia coli CDC F-50 growth [2, 14]: 100%; MIC (E. faecium 27; E. faecium 27, inoculum 10^7 CFU/ml): 0.5 mg/L; MIC (S. marcescens; S. marcescens, inoculum 10^7 CFU/ml): 2 mg/L; MIC (S. marcescens 1966 PR; S. marcescens 1966 PR, inoculum 10^7 CFU/ml): 64 mg/L; MIC (Kl. pneumoniae 1342 PR; Kl. pneumoniae 1342 PR, inoculum 10^7 CFU/ml): 32 mg/L; MIC (E. faecium 28; E. faecium 28, inoculum 10^7 CFU/ml): <0.5 mg/L; MIC (Pseudomonas spp. 5; Pseudomonas spp. 5, inoculum 10^7 CFU/ml): 32 mg/L

— US11014934B2, “Antiseptic drug” (AO “TATKHIMFARMPREPARATY”, priority 2017, dated 2021)
